Test results: PMC5668434, “Modulation of telomere protection by the PI3K/AKT pathway” (Nature Communications, 2017)

Experiments:
PI3K (p110α) = target: T1, PI3K (p110α) (Homo sapiens, UniProt P42336); test: PI3K alpha biochemical assay (ADP Hunter Plus); details: internal data; read-out: PI3Kα IC50
T1 construct: purchased Cama Biosciences (sic; Carna Biosciences) #07CBS-0402A

mTOR (FRAP1) = target: T2, mTOR (FRAP1) (Homo sapiens, UniProt P42345); test: mTOR biochemical assay (LanthaScreen); details: internal data
T2 construct: purchased ThermoFisher PV4753

[1] = system: p-AKT S473 in CHA-9.3 mouse lung cancer cell line; test: Western blot of AKT phosphorylation at Ser473 in CHA-9.3 cells; format: cell-based; details: 10 μM (GSK-2126458 1.0 μM), 24 h
Procedure: These new chemical probes were prepared by replacement of a single key oxygen atom from the morpholine moiety by a methylene group, generating the piperidine derivatives ETP-51259 and ETP-50952 (Fig. 1a). To assess their PI3K cellular activity, we measured phosphorylation of residue Ser473 in AKT (p-AKT S473), a PI3K downstream target[61]–[63], by western blot analysis. To this end, we used the CHA-9.3 mouse lung cancer cell line previously generated by us[39]. […] Of note, the inhibitory activity of ETP-47037 was more prolonged than that of ETP-47228. Thus, ETP-47037 mediated p-AKT S473 inhibition was maintained during the 24-hour treatment while the ETP-47228 mediated inhibition decreased 35% after 24 h as compared to 1-h treatment but still was able to inhibit the pathway above 50% (Fig. 1c).
For detection of AKT, PRAS40 (T246) and pS6 in CHA9.3 cells, untreated control (DMSO) or treated with the indicated inhibitors, were lysed in RIPA buffer supplemented with 100 mM pefablock (Roche Diagnostics) and protease inhibitor cocktail (Roche Molecular Biochemicals). Proteins were resolved on 10% SDS-PAGE, and transferred to nitrocellulose membrane (Amersham^TM Protan^TM 0.2 µm nNC). Membranes were incubated with antibodies against phospho-AKT (Ser473), AKT, phospo-S6 (Ser 235/236), and S6Ribosomal from Cell Signaling, phospo-PRAS40 (Thr246) from BIOSURCE and anti α-tubulin form Sigma, overnight at 4 °C. After washing, blots were incubated with secondary antibody: Alexa Fluor 680 goat anti-rabbit IgG (Invitrogen) or anti-mouse IgG DyLight 800 conjugated (Thermo Scientific), and visualized using an Odyssey infrared imaging system (Li-Cor Biosciences).

[2] = system: TRF1 foci in CHA-9.3 mouse lung tumor cell line; test: TRF1 foci immunofluorescence in CHA-9.3 cells; format: cell-based
Procedure: (§1) TRF1 immunofluorescence of TRF1 was performed in lung tumor-derived cell line (CHA9.3) and in MEFs[39]. A rat monoclonal antibody against mouse TRF1 developed by the Monoclonal antibody unit at CNIO was used to detect endogenous TRF1 (1:500). GFP-TRF1 fluorescence was directly measured in cells fixed in paraformaldehyde. For quantification of TRF1 foci intensity, pictures of fixed cells were automatically acquired from each well by the Opera HCS system (Perkin Elmer). Sixty images of random fields per well, with a 40× magnification lens, were taken under non-saturating conditions. At least 1 × 10^3 cells were analyzed for each well. Briefly, images were segmented using the DAPI staining to generate masks matching cell nuclei from which-TRF1 foci were analyzed.

[3] = system: TRF1 foci in p53−/− mouse embryo fibroblasts (MEF); test: TRF1 foci immunofluorescence in p53−/− MEFs; format: cell-based; details: 10 μM, 24 h
Procedure: We then checked whether PI3Kα/AKT inhibition also leads to decreased TRF1 foci in an additional cell type to CHA-9.3 cells. Thus, we used p53 ^−/− mouse embryo fibroblasts (MEF). We treated these MEFs either with the AKT inhibitor MK-2206 or with ETP-47037 at 10 μM concentration for 24 h and analyzed TRF1 foci by immunofluorescence.
as §1

CHA 9-3 cells = test: Multitelomeric signals (MTS) by Q-FISH on metaphase spreads; format: cell-based, mouse; details: 10 μM, 24 h
Text: Trf1 abrogation is known to lead to a persistent DDR at telomeres, and to induction of telomere-induced chromosomal aberrations[28]–[30]. Trf1 genetic deletion induces the so-called multitelomeric signals (MTS), a chromosomal aberration related to increased telomere fragility during DNA replication, [29]. […] To this end, we treated CHA 9-3 cells with either DMSO, the AKT inhibitor MK-2206 (AKTi) and the PI3K inhibitors ETP-47037 or ETP-47228. For detection of MTS, we performed quantitative fluorescence in situ hybridization (Q-FISH) analysis on metaphase spreads using a telomeric probe to visualize telomeres (“Methods” section). MTS are visualized by presenting a multi-dot pattern at chromosome ends in contrast to normal telomeres that show a single dot at each chromosome end.
Lung cancer-derived cell line (CHA-9-3) and immortalized P110α ^lox/lox MEFS were treated either with 10 µM of ETP-47037, ETP-47228, or AKTi (MK-2206) for 24 h. Q-FISH in metaphase spreads was performed as described above, but increasing the concentration of formamide in both the incubation and the washes to 70%.

[4] = system: TRF1 mRNA in CHA 9-3 lung cancer cells; test: TRF1 mRNA by qPCR; format: cell-based, mouse; details: 10 μM, 24 h
[5] = system: TRF1 protein in CHA 9-3 nuclear extracts; test: Western blot of nuclear TRF1 in CHA 9-3 cells; format: cell-based, mouse; details: 10 μM
Procedure: (§2) Blots were incubated with the primary antibodies anti-TRF1 1:500 (home-made monoclonal Rat, CNIO; TRF-78, ABCAM, ab10579) and with anti-SMC1 1:2000 (Bethyl Laboratories #A300-055A) as loading control. For nuclear protein preparation, the Nuclear/Cytosol Fractionation Kit (K266-100, BioVision) was used according to the manufactures protocol.

[6] = system: TRF1 protein in p53−/− MEFs nuclear extracts; test: Western blot of nuclear TRF1 in p53−/− MEFs; format: cell-based, mouse; details: 10 μM
Procedure: as §2

human AKT1 = target: T3, human AKT1 (Homo sapiens, UniProt P31749); test: In vitro TRF1 phosphorylation by AKT1; format: biochemical; details: MK-2206 25 μM
T3 construct: purchased ProQinase 1379-0000-2
Procedure: To address whether TRF1 is a direct substrate of AKT, affinity purified GST-TRF1 was incubated with purified human AKT1 (1379-0000-2, ProQinase) in the presence of γ-^32ATP. As positive control, a GSK3 (14-27) peptide (0349-0000-5, prokinase) was also used as substrate. AKT1 yielded a TRF1 phosphorylation signal after incubation with purified GST-TRF1 during 1 h, which was decreased in the presence of AKT inhibitor (see asterisk in Fig. 5a, left). AKT1 also yielded a phosphorylation signal in the positive control peptide GSK3 (14-27) that was reduced in the presence of AKT inhibitor (Fig. 5a, right). An autophospholyration activity of AKT1 was detected after 1 h of incubation and this activity was reduced in the presence of AKT inhibitor (Fig. 5a). Together, these findings indicate that TRF1 is a direct substrate of AKT1.
One μg of purified GST-TRF1 was incubated with 0.2 μg of human GST-AKT1 (1379-0000-2, ProQinase) with or without AKT inhibitor (MK-2206, 25 μM) in kinase buffer (50 mM Hepes pH 7.9, 100 μM ATP, 10 mM MgCl2, 5 mM DTT) containing 5 μCi [γ-^32-P]ATP in a total volume of 25 μl. The peptide RBER-GSK3(14-27) (0349-0000-5, ProQinase) (100 ng) was used as positive control. The reactions were performed at 30 °C for […] and stopped by addition of Lamely buffer (6×). Samples were resolved in 4–12% SDS-PAGE gels and subjected to autoradiography.

Akt1 = system: Akt1; design: method as in earlier work; details: reported in literature; read-out: Reported data IC50 Akt 1; cited from earlier work
Akt2 = system: Akt2; design: method as in earlier work; details: reported in literature; read-out: Reported data IC50 Akt 2; cited from earlier work
Akt3 = system: Akt3; design: method as in earlier work; details: reported in literature; read-out: Reported data IC50 Akt 3; cited from earlier work
CHA-9.3 cell line = test: Cytotoxicity in CHA-9.3 cells; format: cell-based, mouse; details: 10 μM
PI3Kα = details: reported in literature; cited from earlier work
PI3Kβ = details: reported in literature; cited from earlier work
PI3Kδ = details: reported in literature; cited from earlier work
PI3Kγ = details: reported in literature; cited from earlier work
mTOR 1 = details: reported in literature; cited from earlier work
mTOR 2 = details: reported in literature; cited from earlier work

T3 sequence (P31749 whole entry): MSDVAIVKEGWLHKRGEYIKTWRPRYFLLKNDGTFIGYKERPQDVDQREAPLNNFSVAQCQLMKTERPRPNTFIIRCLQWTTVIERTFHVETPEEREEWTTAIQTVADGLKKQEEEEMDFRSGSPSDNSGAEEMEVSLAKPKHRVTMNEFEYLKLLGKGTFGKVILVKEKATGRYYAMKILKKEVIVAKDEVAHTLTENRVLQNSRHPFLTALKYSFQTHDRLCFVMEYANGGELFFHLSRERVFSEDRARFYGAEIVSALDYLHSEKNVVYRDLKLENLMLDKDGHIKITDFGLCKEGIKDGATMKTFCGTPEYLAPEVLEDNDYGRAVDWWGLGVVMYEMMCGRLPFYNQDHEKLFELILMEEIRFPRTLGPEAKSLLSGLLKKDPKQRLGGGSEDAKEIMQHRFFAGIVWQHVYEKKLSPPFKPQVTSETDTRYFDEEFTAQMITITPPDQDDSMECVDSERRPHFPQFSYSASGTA
T1 sequence (P42336 whole entry): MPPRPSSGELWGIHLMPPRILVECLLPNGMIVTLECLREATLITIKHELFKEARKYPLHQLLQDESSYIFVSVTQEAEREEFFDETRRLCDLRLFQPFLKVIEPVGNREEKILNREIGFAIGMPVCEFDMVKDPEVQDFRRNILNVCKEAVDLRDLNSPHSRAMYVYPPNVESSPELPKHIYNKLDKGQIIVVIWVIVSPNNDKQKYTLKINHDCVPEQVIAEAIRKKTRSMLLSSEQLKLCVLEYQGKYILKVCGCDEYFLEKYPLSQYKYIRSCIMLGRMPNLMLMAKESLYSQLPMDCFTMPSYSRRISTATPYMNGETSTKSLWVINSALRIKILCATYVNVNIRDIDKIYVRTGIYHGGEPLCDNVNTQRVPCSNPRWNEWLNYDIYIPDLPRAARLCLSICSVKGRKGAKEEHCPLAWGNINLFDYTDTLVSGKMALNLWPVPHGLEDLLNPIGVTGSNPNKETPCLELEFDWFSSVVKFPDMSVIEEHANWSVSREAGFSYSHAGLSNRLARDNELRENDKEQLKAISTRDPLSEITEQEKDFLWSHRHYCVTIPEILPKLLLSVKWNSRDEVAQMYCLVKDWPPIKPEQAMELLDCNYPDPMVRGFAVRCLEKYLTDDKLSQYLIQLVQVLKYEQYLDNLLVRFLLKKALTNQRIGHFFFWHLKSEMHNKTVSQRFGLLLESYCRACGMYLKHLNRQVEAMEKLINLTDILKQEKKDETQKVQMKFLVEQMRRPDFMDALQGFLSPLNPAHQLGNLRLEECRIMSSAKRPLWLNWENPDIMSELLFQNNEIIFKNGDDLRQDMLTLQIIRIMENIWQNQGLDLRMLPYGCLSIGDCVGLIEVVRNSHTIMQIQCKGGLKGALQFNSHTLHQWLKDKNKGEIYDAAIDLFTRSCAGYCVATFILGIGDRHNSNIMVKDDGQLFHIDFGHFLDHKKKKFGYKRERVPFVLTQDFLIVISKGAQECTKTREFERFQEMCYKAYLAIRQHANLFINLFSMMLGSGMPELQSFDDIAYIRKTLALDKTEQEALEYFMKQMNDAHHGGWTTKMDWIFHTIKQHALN
T1 sequence (P27986 whole entry partner): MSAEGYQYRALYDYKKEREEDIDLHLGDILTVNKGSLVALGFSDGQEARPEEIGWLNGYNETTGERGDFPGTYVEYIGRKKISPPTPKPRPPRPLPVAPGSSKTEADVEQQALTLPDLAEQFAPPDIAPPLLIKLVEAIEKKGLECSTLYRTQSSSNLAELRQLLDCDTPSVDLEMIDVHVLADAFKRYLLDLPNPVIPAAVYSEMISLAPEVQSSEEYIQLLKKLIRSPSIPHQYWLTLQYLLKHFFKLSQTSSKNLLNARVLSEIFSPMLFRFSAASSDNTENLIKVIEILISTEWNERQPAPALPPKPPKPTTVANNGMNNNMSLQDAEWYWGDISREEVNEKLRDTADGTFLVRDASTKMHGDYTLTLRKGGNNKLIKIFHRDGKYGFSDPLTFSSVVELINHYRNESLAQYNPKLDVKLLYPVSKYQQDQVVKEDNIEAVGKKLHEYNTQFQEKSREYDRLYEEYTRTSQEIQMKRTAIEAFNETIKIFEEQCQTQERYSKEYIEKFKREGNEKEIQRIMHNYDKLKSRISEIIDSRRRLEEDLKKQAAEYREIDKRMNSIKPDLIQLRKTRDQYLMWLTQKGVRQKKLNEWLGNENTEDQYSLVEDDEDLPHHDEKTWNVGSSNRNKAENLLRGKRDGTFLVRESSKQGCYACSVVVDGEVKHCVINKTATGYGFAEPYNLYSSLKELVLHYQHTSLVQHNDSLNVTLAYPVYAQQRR
T2 sequence (P42345 1360-2549 limits assumed): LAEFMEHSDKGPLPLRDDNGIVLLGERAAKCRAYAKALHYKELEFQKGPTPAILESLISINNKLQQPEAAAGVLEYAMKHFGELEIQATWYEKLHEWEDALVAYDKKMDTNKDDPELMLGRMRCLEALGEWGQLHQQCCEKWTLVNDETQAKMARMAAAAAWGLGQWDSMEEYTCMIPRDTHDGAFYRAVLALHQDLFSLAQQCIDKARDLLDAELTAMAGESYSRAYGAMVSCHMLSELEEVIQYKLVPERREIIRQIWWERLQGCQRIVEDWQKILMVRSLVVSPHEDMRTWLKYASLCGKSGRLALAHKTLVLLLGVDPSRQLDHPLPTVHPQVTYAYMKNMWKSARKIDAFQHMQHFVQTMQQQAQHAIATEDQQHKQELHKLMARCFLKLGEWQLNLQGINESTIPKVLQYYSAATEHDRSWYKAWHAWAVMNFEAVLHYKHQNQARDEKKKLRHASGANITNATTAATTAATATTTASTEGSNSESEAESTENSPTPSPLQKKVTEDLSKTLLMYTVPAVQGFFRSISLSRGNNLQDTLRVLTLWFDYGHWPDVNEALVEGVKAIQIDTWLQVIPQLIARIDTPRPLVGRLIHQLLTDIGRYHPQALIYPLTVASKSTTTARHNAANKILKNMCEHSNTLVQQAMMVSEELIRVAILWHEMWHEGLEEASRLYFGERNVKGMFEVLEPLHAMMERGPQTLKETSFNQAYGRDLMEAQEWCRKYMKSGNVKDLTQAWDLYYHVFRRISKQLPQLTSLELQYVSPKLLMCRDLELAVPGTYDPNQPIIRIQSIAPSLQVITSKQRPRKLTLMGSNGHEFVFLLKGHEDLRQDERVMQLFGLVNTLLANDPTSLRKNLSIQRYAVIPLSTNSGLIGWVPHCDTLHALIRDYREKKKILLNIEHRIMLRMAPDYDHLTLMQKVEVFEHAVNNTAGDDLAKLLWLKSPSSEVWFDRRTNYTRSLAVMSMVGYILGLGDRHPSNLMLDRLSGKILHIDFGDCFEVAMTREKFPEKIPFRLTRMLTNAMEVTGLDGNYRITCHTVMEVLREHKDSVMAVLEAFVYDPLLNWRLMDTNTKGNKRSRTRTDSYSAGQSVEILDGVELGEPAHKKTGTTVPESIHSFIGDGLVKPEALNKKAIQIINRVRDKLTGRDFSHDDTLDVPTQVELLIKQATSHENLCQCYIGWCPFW

NC1(c2ccc(-c3nc4ccn5c(=O)[nH]nc5c4cc3-c3ccccc3)cc2)CCC1 [MK-2206, reference compound]
IC50 (PI3K (p110α)): 34.3 nM
IC50 (mTOR (FRAP1)): > 10 µM
Phosphorylation of AKT (p-AKT S473) (in words) [1]: strong inhibition
Inhibition of TRF1 foci (in words) ([2]; 10 μM (GSK-2126458 1.0 μM), 24 h, CHA-9.3): effectively inhibited TRF1 foci
TRF1 levels as compared to bortezomib/DMSO-treated control cells ([2]; 10 μM plus bortezomib 50 nM, CHA 9-3): significantly lower
Reduction in TRF1 foci intensity [3]: 22%
Frequency of MTS events per metaphase compared to DMSO (CHA 9-3 cells): significantly increased
TRF1 mRNA levels [4]: None of the inhibitors significantly affected
TRF1 protein levels in nuclear extracts [5]: significantly decreased
Total nuclear TRF1 levels compared to DMSO [6]: decreased
Autophosphorylation activity of AKT1 (human AKT1; 1 h): reduced
Phosphorylation signal of control peptide GSK3 (14-27) by AKT1 (human AKT1): reduced
TRF1 phosphorylation signal by AKT1 (human AKT1; purified GST-TRF1, 1 h): decreased
IC50 (Akt1): 8 nM
IC50 (Akt2): 12 nM
IC50 (Akt3): 65 nM

COc1ncc(-c2ccc3nccc(-c4ccnnc4)c3c2)cc1NS(=O)(=O)c1ccc(F)cc1F [GSK-2126458]
Cytotoxicity (CHA-9.3 cell line): high cytotoxicity
IC50 (mTOR 1): 0.18 nM
IC50 (mTOR 2): 0.3 nM
